Test results reported in patent US7612087B2, “Heterocyclic compounds as inhibitors of beta-lactamases” (Novexel, priority 2002, dated 2009).
Structures can show the parent of a compound that is named as a salt. Where two headings read alike, the source gives them in different places.

Legend:
[1] = tested on: E. coli 250CF1 (Tem3); experiment: microbe, parasite or virus in culture; assay type: cell-based; settings: compound at 5 mg/l, 24 hours at 37° C.; for MIC of Piperacillin in combination with the compound: Trial 4, 250CF1 Tem3; for MIC of Cefotaxime in combination with the compound: Trial 4, 250CF1 E. coli Tem3
Method in brief: (§1)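 β-Lactamine was serially diluted in liquid medium with the test product held constant at 5 mg/l, then each dilution was inoculated with bacteria. After 24 hours at 37° C, the lowest concentration showing no bacterial growth was taken as the MIC, in mg/l.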

[2] = tested on: P. aeruginosa 391HT7 (PSE); experiment: MIC, micro-dilution in liquid medium, β-lactamine with product at 5 mg/l; assay type: cell-based; settings: compound at 5 mg/l, 24 hours at 37° C.; for MIC of Piperacillin in combination with the compound: Trial 11, 391HT7 PSE; for MIC of Cefotaxime in combination with the compound: Trial 11, 391HT7 P. aeruginosa PSE
Method in brief: as §1

[3] = tested on: E. cloacae 293HT6 (Class C); experiment: as above; assay type: cell-based; settings: compound at 5 mg/l, 24 hours at 37° C.; for MIC of Piperacillin in combination with the compound: Trial 9, 293HT6 Class; for MIC of Cefotaxime in combination with the compound: Trial 9, 293HT6 E. cloacae Class C
Method in brief: as §1

[4] = tested on: E. coli 250BE1 (SHV4); experiment: as above; assay type: cell-based; settings: compound at 5 mg/l, 24 hours at 37° C.; for MIC of Piperacillin in combination with the compound: Trial 7, 250BE1 SHV4; for MIC of Cefotaxime in combination with the compound: Trial 7, 250BE1 E. coli SHV4
Method in brief: as §1

[5] = tested on: E. coli 250HT22 (Tem2); experiment: as above; assay type: cell-based; settings: compound at 5 mg/l, 24 hours at 37° C.; for MIC of Piperacillin in combination with the compound: Trial 3, 250HT22 Tem2; for MIC of Cefotaxime in combination with the compound: Trial 3, 250HT22 E. coli Tem2
Method in brief: as §1

[6] = tested on: E. coli 250HT23 (Class D); experiment: as above; assay type: cell-based; settings: compound at 5 mg/l, 24 hours at 37° C.; for MIC of Piperacillin in combination with the compound: Trial 8, 250HT23 Class D; for MIC of Cefotaxime in combination with the compound: Trial 8, 250HT23 E. coli Class D
Method in brief: as §1

[7] = tested on: E. coli 250HT26 (SHV1); experiment: as above; assay type: cell-based; settings: compound at 5 mg/l, 24 hours at 37° C.; for MIC of Piperacillin in combination with the compound: Trial 6, 250HT26 SHV1; for MIC of Cefotaxime in combination with the compound: Trial 6, 250HT26 E. coli SHV1
Method in brief: as §1

[8] = tested on: P. aeruginosa 391HT8 (PSE); experiment: as above; assay type: cell-based; settings: compound at 5 mg/l, 24 hours at 37° C.; for MIC of Piperacillin in combination with the compound: Trial 12, 391HT8 PSE; for MIC of Cefotaxime in combination with the compound: Trial 12, 391HT8 P. aeruginosa PSE
Method in brief: as §1

[9] = tested on: S. aureus 011GO66 (PeniR); experiment: as above; assay type: cell-based; settings: compound at 5 mg/l, 24 hours at 37° C.; for MIC of Piperacillin in combination with the compound: Trial 1, 011GO66 peniR; for MIC of Cefotaxime in combination with the compound: Trial 1, 011GO66 S. aureus PeniR
Method in brief: as §1

[10] = tested on: E. coli 250HT21 (Tem1); experiment: as above; assay type: cell-based; settings: compound at 5 mg/l, 24 hours at 37° C.; for MIC of Piperacillin in combination with the compound: Trial 2, 250HT21 Tem1; for MIC of Cefotaxime in combination with the compound: Trial 2, 250HT21 E. coli Tem1
Method in brief: as §1

[11] = tested on: E. coli 250SJ1 (Tem7); experiment: as above; assay type: cell-based; settings: compound at 5 mg/l, 24 hours at 37° C.; for MIC of Piperacillin in combination with the compound: Trial 5, 250SJ1 Tem7; for MIC of Cefotaxime in combination with the compound: Trial 5, 250SJ1 E. coli Tem7
Method in brief: as §1

[12] = tested on: Serratia 301HT6; experiment: as above; assay type: cell-based; settings: compound at 5 mg/l; Trial 10, 301HT6 Serratia; 24 hours at 37° C.
Method in brief: as §1

[13] = target: T1, β-lactamase P99 (Enterobacter cloacae, UniProt P05364); experiment: biochemical
T1 construct: The β-lactamases are isolated from bacterial strains which are resistant to penicillins and cephalosporins; endogenous in cells; host or cells: Enterobacter cloacae 293HT6 (natural producer; French-press lysate, 100,000 g supernatant)
T1 sequence (P05364 21-381): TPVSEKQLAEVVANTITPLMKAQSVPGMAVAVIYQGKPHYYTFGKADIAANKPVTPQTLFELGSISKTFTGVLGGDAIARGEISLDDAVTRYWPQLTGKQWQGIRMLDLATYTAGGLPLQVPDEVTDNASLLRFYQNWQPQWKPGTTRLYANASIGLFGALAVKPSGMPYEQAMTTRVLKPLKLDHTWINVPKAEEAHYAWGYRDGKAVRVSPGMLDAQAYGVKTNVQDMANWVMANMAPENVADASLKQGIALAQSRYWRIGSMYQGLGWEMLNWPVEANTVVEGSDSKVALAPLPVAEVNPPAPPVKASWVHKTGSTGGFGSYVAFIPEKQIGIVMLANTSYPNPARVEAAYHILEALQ
Method in brief: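 P99 β-lactamase, taken from the soluble fraction of an Enterobacter cloacae 293HT6 lysate, was assayed at 37° C. in 50 mM sodium phosphate buffer pH7.0 with 100 μM Nitrocefin as the chromogenic substrate. Hydrolysis was followed kinetically at 485 nm at initial speed, with and without a 5 mn enzyme–inhibitor preincubation. Inhibitors were tested at 6 or 8 concentrations in duplicate, and IC50 was fitted with GraFit.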

[14] = target: T2, β-lactamase TEM1 (Escherichia coli, UniProt P62593); experiment: Inhibition of isolated β-lactamase Tem-1 (Nitrocefin hydrolysis); assay type: biochemical, E.coli 250HT21; settings: 100 μM Nitrocefin, 50 mM sodium phosphate buffer pH7.0, 37° C.
T2 construct: The β-lactamases are isolated from bacterial strains which are resistant to penicillins and cephalosporins; endogenous in cells; host or cells: E. coli 250HT21 (natural producer; French-press lysate, 100,000 g supernatant)
T2 sequence (P62593 24-286 limits assumed): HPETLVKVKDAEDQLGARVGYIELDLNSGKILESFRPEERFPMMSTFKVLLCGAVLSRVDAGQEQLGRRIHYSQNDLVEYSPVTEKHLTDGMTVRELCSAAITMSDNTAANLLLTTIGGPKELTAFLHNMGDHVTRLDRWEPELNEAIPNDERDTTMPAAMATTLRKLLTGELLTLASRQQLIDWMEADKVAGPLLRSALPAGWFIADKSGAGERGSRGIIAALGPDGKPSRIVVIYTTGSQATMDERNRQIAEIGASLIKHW
Method in brief: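 TEM-1 from soluble extract of E. coli 250HT21, normalized enzyme, 100 μM Nitrocefin in 50 mM sodium phosphate pH 7.0 at 37 °C. Initial-rate hydrolysis read kinetically at 485 nm, with and without 5 min enzyme–inhibitor preincubation. CI50 from 6 or 8 concentrations in duplicate.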

[15] = 100 μM Nitrocefin, 50 mM sodium phosphate buffer pH7.0, 37° C., read-out: IC50 nM/P99

| Compound | MIC of Piperacillin in combination with the compound [1] [µg/mL] | MIC of Piperacillin in combination with the compound [2] [µg/mL] | MIC of Piperacillin in combination with the compound [3] [µg/mL] | MIC of Piperacillin in combination with the compound [4] [µg/mL] | MIC of Piperacillin in combination with the compound [5] [µg/mL] | MIC of Piperacillin in combination with the compound [6] [µg/mL] | MIC of Piperacillin in combination with the compound [7] [µg/mL] | MIC of Piperacillin in combination with the compound [8] [µg/mL] | MIC of Piperacillin in combination with the compound [9] [µg/mL] | MIC of Piperacillin in combination with the compound [10] [µg/mL] | MIC of Piperacillin in combination with the compound [11] [µg/mL] | MIC of Piperacillin in combination with the compound [12] [µg/mL] | IC50 [13, 15] [nM] | IC50 [14] [nM] | MIC of Cefotaxime in combination with the compound [1] [µg/mL] | MIC of Cefotaxime in combination with the compound [2] [µg/mL] | MIC of Cefotaxime in combination with the compound [3] [µg/mL] | MIC of Cefotaxime in combination with the compound [4] | MIC of Cefotaxime in combination with the compound [5] | IC50 [13] [nM] | also measured |
| --- | --- | --- | --- | --- | --- | --- | --- | --- | --- | --- | --- | --- | --- | --- | --- | --- | --- | --- | --- | --- | --- |
| NC(=O)C(NC(=O)[C@H]1CC[C@@H]2CN1C(=O)N2OS(=O)(=O)[O-])c1ccccc1.[Na+] (relative stereo) [Example 47, sodium salt of trans-N-(2-amino-2-oxo-1-phenylethyl)-7-oxo-6-(sulphooxy)-1,6-diazabicyclo[3.2.1]octane-2-carboxamide] | 5 | >40 | >40 | 5 | 20 | 10 | 2.5 | >40 | 0.6 | 2.5 | 40 | 1.2 | 43 | 18 |  |  |  |  |  |  |  |
| O=C(OCCc1ccccn1)[C@H]1CC[C@@H]2CN1C(=O)N2OS(=O)(=O)[O-].[Na+] (relative stereo) [Example 50, sodium salt of trans 2-(2-pyridinyl)ethyl 7-oxo-6-(sulphooxy)-1,6-diazabicyclo[3.2.1]octane-2-carboxylate] | 5 | >40 | >40 | 40 | 40 | 40 | 40 | >40 | 1.2 | 2.5 | 40 | 0.6 | 150 | 18 |  |  |  |  |  |  |  |
| O=C(NCc1cccnc1)C1CCC2CN1C(=O)N2OS(=O)(=O)O (stereo not drawn) [Example 43, sodium salt of trans-7-oxo-N-(3-pyridinylmethyl)-6-(sulphooxy)-1,6-diazabicyclo[3.2.1]octane-2-carboxamide] | 2.5 | >40 | 2.5 | 10 | 1.2 | 2.5 | 5 | >40 | 1.2 | 1.2 | 5 | 0.6 |  | 31 | 0.08 | 20 | 0.08 | <=0.04 μg/ml | <=0.04 μg/ml | 76 | MIC of Cefotaxime in combination with the compound [6]: <=0.04 μg/ml; MIC of Cefotaxime in combination with the compound [7]: <=0.04 μg/ml; MIC of Cefotaxime in combination with the compound [8]: 20 µg/mL; MIC of Cefotaxime in combination with the compound [9]: 2.5 µg/mL; MIC of Cefotaxime in combination with the compound [10]: <=0.04 μg/ml; MIC of Cefotaxime in combination with the compound [11]: <=0.04 μg/ml; MIC of Cefotaxime in combination with the compound [12]: <=0.04 μg/ml |
| NC(=O)C(Cc1ccccc1)NC(=O)C1CCC2CN1C(=O)N2OS(=O)(=O)O (stereo not drawn) [Example 44, sodium salt of trans-N-(1-amino-1-oxo-3-phenyl-2-propyl)-7-oxo-6-(sulphooxy)-1,6-diazabicyclo[3.2.1]octane-2-carboxamide] | 40 | >40 | >40 | >40 | >40 | 40 | >40 | >40 | 2.5 | 5 | >40 | >40 |  | 59 | 0.3 | >40 | >40 | 0.6 µg/mL | 0.15 µg/mL | 100 | MIC of Cefotaxime in combination with the compound [6]: <=0.04 μg/ml; MIC of Cefotaxime in combination with the compound [7]: 0.08 µg/mL; MIC of Cefotaxime in combination with the compound [8]: >40 µg/mL; MIC of Cefotaxime in combination with the compound [9]: 2.5 µg/mL; MIC of Cefotaxime in combination with the compound [10]: <=0.04 μg/ml; MIC of Cefotaxime in combination with the compound [11]: 0.08 µg/mL; MIC of Cefotaxime in combination with the compound [12]: 10 µg/mL |
| NC(=O)CNC(=O)C1CCC2CN1C(=O)N2OS(=O)(=O)O (stereo not drawn) [Example 45, sodium salt of trans-N-(2-amino-2-oxoethyl)-7-oxo-6-(sulphooxy)-1,6-diazabicyclo[3.2.1]octane-2-carboxamide] | 2.5 | >40 | 1.2 | 5 | 2.5 | 10 | 2.5 | >40 | 1.2 | 1.2 | 2.5 | 0.6 |  | 12 |  |  |  |  |  | 60 |  |
